Measured values published in patent US20230167127A1, “COMPOUNDS AND THEIR USE IN THE TREATMENT OF BACTERIAL INFECTION” (Hoffmann-La Roche Inc., priority 2020, published 2023).
Counter-ions that a name gives are not always drawn.

The molecules below were run on Escherichia coli ATCC 25922 (assay: 50% growth inhibitory concentration (IC50) determination, Iso-Sensitest broth dilution). Conditions: Escherichia coli, ATCC25922, 16 h, strain Escherichia coli ATCC 25922; 10-point broth dilution, optical density at 600 nm over 16 h; read-out: Escherichia coli growth inhibition IC50.
Format: cell-based
Outline: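 Growth was tracked as optical density at 600 nm every 20 minutes for 16 h at 35±2° C. Compounds from DMSO stocks were serially diluted twofold over 10 points (e.g. 50–0.097 μM final) in Iso-Sensitest broth. Inhibition computed in log-phase growth to give IC50.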
For `N#Cc1cccc2c1CC(NCCCC1CN(c3cnc4c(n3)NC(=O)CO4)C(=O)O1)C2` (stereo not shown) [Example 80, 2-[3-[2-oxo-3-(3-oxo-4H-pyrazino[2,3-b][1,4]oxazin-6-yl)-1,3-oxazolidin-5-yl]propylamino]-2,3-dihydro-1H-indene-4-carbonitrile], the IC50 was < 97.7 nM.
`O=C1COc2ccc(N3C[C@@H](NC4CC(NC5Cc6cccc(F)c6C5)C4)CC3=O)nc2N1` (stereo partly drawn) [Example 24, 6-[(4S)-4-[[3-[(4-fluoro-2,3-dihydro-1H-inden-2-yl)amino]cyclobutyl]amino]-2-oxopyrrolidin-1-yl]-4H-pyrido[3,2-b][1,4]oxazin-3-one] gave an IC50 of 1810 nM.
For `O=C1COc2ccc(N3CC(CCNCC4Cc5cccc(Cl)c5C4)OC3=O)nc2N1` (stereo not shown) [Example 1, 6-[5-[2-[(4-Chloro-2,3-dihydro-1H-inden-2-yl)methylamino]ethyl]-2-oxo-1,3-oxazolidin-3-yl]-4H-pyrido[3,2-b][1,4]oxazin-3-one; formic acid], the IC50 was < 97.7 nM.
In the case of `O=C1COc2ccc(N3C[C@H](NC4CC(NC5Cc6cccc(F)c6C5)C4)CC3=O)nc2N1` (stereo partly drawn) [Example 23, 6-[(4R)-4-[[3-[(4-fluoro-2,3-dihydro-1H-inden-2-yl)amino]cyclobutyl]amino]-2-oxopyrrolidin-1-yl]-4H-pyrido[3,2-b][1,4]oxazin-3-one; formic acid], the IC50 is reported as 2170 nM.
Work on `O=C1COc2ncc(N3CC(CCNCC4Cc5c(F)cnc(-c6cn[nH]c6)c5C4)OC3=O)nc2N1` (stereo not shown) [Example 432, 6-[5-[2-[[4-fluoro-1-(1H-pyrazol-4-yl)-6,7-dihydro-5H-cyclopenta[c]pyridin-6-yl]methylamino]ethyl]-2-oxo-1,3-oxazolidin-3-yl]-4H-pyrazino[2,3-b][1,4]oxazin-3-one] yielded an IC50 of 120 nM.
Work on `CC(C)(O)COc1cc(F)c2c(c1)CC(CNCCC1CN(c3cnc4c(n3)NC(=O)CO4)C(=O)O1)C2` (stereo not shown) [Example 292, 6-[5-[2-[[4-fluoro-6-(2-hydroxy-2-methylpropoxy)-2,3-dihydro-1H-inden-2-yl]methylamino]ethyl]-2-oxo-1,3-oxazolidin-3-yl]-4H-pyrazino[2,3-b][1,4]oxazin-3-one] yielded an IC50 of 403 nM.
For `O=C1COc2ncc(N3CC4(CCN(CC5Cc6ccnc(Cl)c6C5)CC4)OC3=O)nc2N1` (stereo not shown) [Example 373, 6-[8-[(1-chloro-6,7-dihydro-5H-cyclopenta[c]pyridin-6-yl)methyl]-2-oxo-1-oxa-3,8-diazaspiro[4.5]decan-3-yl]-4H-pyrazino[2,3-b][1,4]oxazin-3-one], the IC50 was < 97.7 nM.
For `N#Cc1c(OCC2CCN2)ccc2c1CC(CNCCC1CN(c3ccc4c(n3)NC(=O)CO4)C(=O)O1)C2` (stereo not shown) [Example 137, 5-(azetidin-2-ylmethoxy)-2-[[2-[2-oxo-3-(3-oxo-4H-pyrido[3,2-b][1,4]oxazin-6-yl)-1,3-oxazolidin-5-yl]ethylamino]methyl]-2,3-dihydro-1H-indene-4-carbonitrile; formic acid], the IC50 was 801 nM.
For `NC1c2cccc(Cl)c2CC1CNC1CC2(C1)CN(c1ccc3c(n1)NC(=O)CO3)C(=O)O2` (racemic) [Example 210, 2,4-cis-6-[6-oxo-2-[[rac-1,2-trans-1-amino-4-chloro-2,3-dihydro-1H-inden-2-yl]methylamino]-5-oxa-7-azaspiro[3.4]octan-7-yl]-4H-pyrido[3,2-b][1,4]oxazin-3-one], the IC50 was 295 nM.
Molecule `CNC(=O)COc1nc(C)c2c(c1C)CC(CNCCC1CN(c3cnc4c(n3)NC(=O)CO4)C(=O)O1)C2` (stereo not shown) [Example 111, 2-[[1,4-dimethyl-6-[[2-[2-oxo-3-(3-oxo-4H-pyrazino[2,3-b][1,4]oxazin-6-yl)-1,3-oxazolidin-5-yl]ethylamino]methyl]-6,7-dihydro-5H-cyclopenta[c]pyridin-3-yl]oxy]-N-methylacetamide] has an IC50 of 489 nM.
For `N#Cc1cc(OCC2CNC2)cc2c1CC(CNCCC1CN(c3ccc4c(n3)NC(=O)CO4)C(=O)O1)C2` (stereo not shown) [Example 191, 6-(azetidin-3-ylmethoxy)-2-[[2-[2-oxo-3-(3-oxo-4H-pyrido[3,2-b][1,4]oxazin-6-yl)-1,3-oxazolidin-5-yl]ethylamino]methyl]-2,3-dihydro-1H-indene-4-carbonitrile; 2,2,2-trifluoroacetic acid], the IC50 was 295 nM.
For `COc1cc2c(c(C#N)n1)CC(CNCCC1CN(c3ccc4c(n3)NC(=O)CO4)C(=O)O1)C2` (stereo not shown) [Example 53, 3-methoxy-6-[[2-[2-oxo-3-(3-oxo-4H-pyrido[3,2-b][1,4]oxazin-6-yl)-1,3-oxazolidin-5-yl]ethylamino]methyl]-6,7-dihydro-5H-cyclopenta[c]pyridine-1-carbonitrile], the IC50 was < 97.7 nM.
`CS(=O)(=O)N1CC(Oc2cc(F)c3c(c2)CC(CNCCC2CN(c4cnc5c(n4)NC(=O)CO5)C(=O)O2)C3)C1` (stereo not shown) [Example 355, 6-[5-[2-[[4-fluoro-6-(1-methylsalfonylazetidin-3-yl)oxy-2,3-dihydro-1H-inden-2-yl]methylamino]ethyl]-2-oxo-1,3-oxazolidin-3-yl]-4H-pyrazino[2,3-b][1,4]oxazin-3-one hydrochloride] gave an IC50 of 162 nM.
`N#Cc1cc(OCc2cnc[nH]2)cc2c1CC(CNCCC1CN(c3cnc4c(n3)NC(=O)CO4)C(=O)O1)C2` (stereo not shown) [Example 406, 6-(1H-imidazol-5-ylmethoxy)-2-[[2-[2-oxo-3-(3-oxo-4H-pyrazino[2,3-b][1,4]oxazin-6-yl)-1,3-oxazolidin-5-yl]ethylamino]methyl]-2,3-dihydro-1H-indene-4-carbonitrile; formic acid] gave an IC50 of 139 nM.
Work on `CC(=O)N1CC(Oc2cc(F)c3c(c2)CC(CNCCC2CN(c4cnc5c(n4)NC(=O)CO5)C(=O)O2)C3)C1` (stereo not shown) [Example 354, 6-[5-[2-[[6-(1-acetylazetidin-3-yl)oxy-4-fluoro-2,3-dihydro-1H-inden-2-yl]methylamino]ethyl]-2-oxo-1,3-oxazolidin-3-yl]-4H-pyrazino[2,3-b][1,4]oxazin-3-one; formic acid] yielded an IC50 of 392 nM.
For `Cn1cc(COc2cc(C#N)c3c(c2)CC(CNCCC2CN(c4cnc5c(n4)NC(=O)CO5)C(=O)O2)C3)cn1` (stereo not shown) [Example 390, 6-[(1-methylpyrazol-4-yl)methoxy]-2-[[2-[2-oxo-3-(3-oxo-4H-pyrazino[2,3-b][1,4]oxazin-6-yl)-1,3-oxazolidin-5-yl]ethylamino]methyl]-2,3-dihydro-1H-indene-4-carbonitrile], the IC50 was 161 nM.
With `NC(=O)COc1cc(F)c2c(c1F)CC(CNCCC1CN(c3cnc4c(n3)NC(=O)CO4)C(=O)O1)C2` (stereo not shown) [Example 312, 2-[[4,7-difluoro-2-[[2-[2-oxo-3-(3-oxo-4H-pyrazino[2,3-b][1,4]oxazin-6-yl)-1,3-oxazolidin-5-yl]ethylamino]methyl]-2,3-dihydro-1H-inden-5-yl]oxy]acetamide] the IC50 was < 97.7 nM.
With `O=C1COc2ncc(N3CC(CCNCC4Cc5nccc(F)c5C4)OC3=O)nc2N1` (stereo not shown) [Example 318, 6-[5-[2-[(4-fluoro-6,7-dihydro-5H-cyclopenta[b]pyridin-6-yl)methylamino]ethyl]-2-oxo-1,3-oxazolidin-3-yl]-4H-pyrazino [2,3-b][1,4]oxazin-3-one] the IC50 was < 97.7 nM.
For `N#Cc1c(OC2CNC2)ccc2c1CC(CNCCC1CN(c3ccc4c(n3)NC(=O)CO4)C(=O)O1)C2` (stereo not shown) [Example 132, 5-(azetidin-3-yloxy)-2-[[2-[2-oxo-3-(3-oxo-4H-pyrido[3,2-b][1,4]oxazin-6-yl)-1,3-oxazolidin-5-yl]ethylamino]methyl]-2,3-dihydro-1H-indene-4-carbonitrile; formic acid], the IC50 was 145 nM.
Molecule `O=C1COc2ncc(N3CC(CCNCC4Cc5cc(OCCn6ccnc6)cc(F)c5C4)OC3=O)nc2N1` (stereo not shown) [Example 332, 6-[5-[2-[[4-fluoro-6-(2-imidazol-1-ylethoxy)-2,3-dihydro-1H-inden-2-yl]methylamino]ethyl]-2-oxo-1,3-oxazolidin-3-yl]-4H-pyrazino[2,3-b][1,4]oxazin-3-one] has an IC50 of 184 nM.
`CS(=O)(=O)NCCOc1cc(C#N)c2c(c1)CC(CNCCC1CN(c3ccc4c(n3)NC(=O)CO4)C(=O)O1)C2` (stereo not shown) [Example 115, N-[2-[[7-cyano-2-[[2-[2-oxo-3-(3-oxo-4H-pyrido[3,2-b][1,4]oxazin-6-yl)-1,3-oxazolidin-5-yl]ethylamino]methyl]-2,3-dihydro-1H-inden-5-yl]oxy]ethyl]methanesulfonamide] showed an IC50 of 261 nM.
For `N[C@@H]1c2cc(OCC3(N)CC3)cc(Cl)c2C[C@H]1CN1CCC2(CC1)CN(c1ccc3c(n1)NC(=O)CO3)C(=O)O2` (racemic) [Example 274, 6-[2-Oxo-8-[[rac-1,2-trans-1-amino-6-[(1-aminocyclopropyl)methoxy]-4-chloro-2,3-dihydro-1H-inden-2-yl]methyl]-1-oxa-3,8-diazaspiro[4.5]decan-3-yl]-4H-pyrido[3,2-b][1,4]oxazin-3-one; formic acid], the IC50 was < 97.7 nM.
For `N#Cc1cccc2c1CC(CNC[C@@H](O)[C@H]1CN(c3ccc4c(c3)NC(=O)CO4)C(=O)O1)C2` (stereo partly drawn) [Example 61, 2-[[[(2R)-2-hydroxy-2-[(5R)-2-oxo-3-(3-oxo-4H-1,4-benzoxazin-6-yl)-1,3-oxazolidin-5-yl]ethyl]amino]methyl]-2,3-dihydro-1H-indene-4-carbonitrile; formic acid], the IC50 was 164 nM.
With `Cc1ncc(F)c2c1CC(NCCCC1CN(c3ccc4c(n3)NC(=O)CO4)C(=O)O1)C2` (stereo not shown) [Example 78, 6-[5-[3-[(4-fluoro-1-methyl-6,7-dihydro-5H-cyclopenta[c]pyridin-6-yl)amino]propyl]-2-oxo-1,3-oxazolidin-3-yl]-4H-pyrido[3,2-b][1,4]oxazin-3-one] the IC50 was 155 nM.

Same assay, conditions: strain Escherichia coli ATCC 25922; 10-point broth dilution, optical density at 600 nm over 16 h; read-out: Escherichia coli growth inhibition IC50
Molecule `Cc1ncc(F)c2c1CC(NC1CC(C3CN(c4cnc5c(n4)NC(=O)CO5)C(=O)O3)C1)C2` (single isomer, unassigned; isomer b) [Example 329, 6-[5-[3-[(4-fluoro-1-methyl-6,7-dihydro-5H-cyclopenta[c]pyridin-6-yl)amino]cyclobutyl]-2-oxo-1,3-oxazolidin-3-yl]-4H-pyrazino[2,3-b][1,4]oxazin-3-one, Isomer B] has an IC50 of 453 nM.
